# Laboratory results from the supplement of paper PMC10307832.
# Key:
# Test in all cases: relative viability (nuclei count vs DMSO), 5 days (fraction); higher = more cells survive
# Imatinib + Foretinib = compound: Cc1ccc(NC(=O)c2ccc(CN3CCN(C)CC3)cc2)cc1Nc1nccc(-c2cccnc2)n1 [Imatinib] + COc1cc2c(Oc3ccc(NC(=O)C4(C(=O)Nc5ccc(F)cc5)CC4)cc3F)ccnc2cc1OCCCN1CCOCC1 [Foretinib] (partner 0.25 µM)
# Procedure, shortened: (§1)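 Lung cancer cell lines in 1536-well plates were dosed by pin tool the day after seeding, either with one drug alone or with a fixed anchor-drug dose plus five library-drug doses (not always all listed) in √10 steps. After 5 days, cells were fixed and their nuclei stained in one step (final 0.05% Triton X-100, 1% formaldehyde, 1 ug/ml Hoechst), then counted on 4× images. Relative viability is the nuclei count in treated wells divided by that in vehicle wells. Values are medians of duplicate plates.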
# Imatinib + Bortezomib = compound: Cc1ccc(NC(=O)c2ccc(CN3CCN(C)CC3)cc2)cc1Nc1nccc(-c2cccnc2)n1 [Imatinib] + CC(C)C[C@H](NC(=O)[C@H](Cc1ccccc1)NC(=O)c1cnccn1)B(O)O [Bortezomib] (partner 0.002 µM)
# Procedure, shortened: as §1
# Imatinib + Pemetrexed = compound: Cc1ccc(NC(=O)c2ccc(CN3CCN(C)CC3)cc2)cc1Nc1nccc(-c2cccnc2)n1 [Imatinib] + Nc1nc2[nH]cc(CCc3ccc(C(=O)N[C@@H](CCC(=O)O)C(=O)O)cc3)c2c(=O)[nH]1 [Pemetrexed] (partner 0.2 µM)
# Procedure, shortened: as §1
# Imatinib + Vorinostat = compound: Cc1ccc(NC(=O)c2ccc(CN3CCN(C)CC3)cc2)cc1Nc1nccc(-c2cccnc2)n1 [Imatinib] + O=C(CCCCCCC(=O)Nc1ccccc1)NO [Vorinostat] (partner 1 µM)
# Procedure, shortened: as §1
Cell Line,relative viability (Imatinib + Foretinib; first compound 0.02 µM),relative viability (Imatinib + Foretinib; first compound 0.06325 µM),relative viability (Imatinib + Foretinib; first compound 0.2 µM),relative viability (Imatinib + Foretinib; first compound 0.6325 µM),relative viability (Imatinib + Bortezomib; first compound 0.02 µM),relative viability (Imatinib + Bortezomib; first compound 0.06325 µM),relative viability (Imatinib + Bortezomib; first compound 0.2 µM),relative viability (Imatinib + Bortezomib; first compound 2 µM),relative viability (Imatinib + Pemetrexed; first compound 0.02 µM),relative viability (Imatinib + Pemetrexed; first compound 0.06325 µM),relative viability (Imatinib + Pemetrexed; first compound 0.2 µM),relative viability (Imatinib + Pemetrexed; first compound 0.6325 µM),relative viability (Imatinib + Pemetrexed; first compound 2 µM),relative viability (Imatinib + Vorinostat; first compound 0.02 µM),relative viability (Imatinib + Vorinostat; first compound 0.06325 µM),relative viability (Imatinib + Vorinostat; first compound 0.2 µM),relative viability (Imatinib + Vorinostat; first compound 0.6325 µM),relative viability (Imatinib + Vorinostat; first compound 2 µM),relative viability (Imatinib + Foretinib; first compound 2 µM),relative viability (Imatinib + Bortezomib; first compound 0.6325 µM)
NCI-H1755,0.917,1.02,0.98,0.948,1.13,1.09,1.03,0.928,0.568,0.44,0.416,0.386,0.625,0.875,0.835,0.649,0.742,0.653,–,–
NCI-H1915,1.17,–,1.25,1.05,1.04,–,–,–,0.536,–,0.516,0.461,0.572,0.613,–,0.516,0.461,0.471,1.08,–
HARA,0.836,–,0.976,0.886,0.952,1.25,1.5,1.1,0.256,0.235,0.23,0.286,0.227,0.615,–,0.595,0.546,0.653,0.971,1.09
NCI-H2228,0.905,–,0.891,0.886,1.13,0.782,1.14,0.895,0.344,0.389,0.303,0.345,0.33,0.677,0.692,0.724,0.602,1,0.899,1.01
COR-L 105,1.2,1.23,–,0.948,1.08,0.871,0.73,–,1.33,1.27,1.13,1.06,0.983,1.12,0.858,0.825,0.701,0.841,1.08,0.636
CAL-12T,1.09,–,1.1,1.16,1.07,1.1,0.927,1.02,1.35,1.33,1.25,1.32,1.28,0.854,0.69,0.828,0.78,0.711,1.16,0.968
HCC-827,1.05,1.04,1.05,1.04,–,1,1.04,–,0.283,0.285,0.249,0.267,0.255,0.797,0.906,0.858,0.788,0.684,0.962,1.02
NCI-H2087,1.2,–,–,1.05,0.868,0.963,0.689,0.604,0.692,–,0.749,0.58,–,0.806,–,0.787,0.716,–,0.976,0.727
NCI-H1666,0.926,0.911,0.943,1.15,0.76,0.796,0.837,0.652,0.902,0.906,0.897,0.842,0.842,1.04,0.986,1.06,1.27,0.946,0.966,0.859
EMC-BAC-2,1.05,1.12,1.09,0.973,1.11,1.11,1.21,1.07,0.443,0.483,0.447,0.507,0.424,0.514,0.497,0.492,0.522,0.514,1.02,1.16
NCI-H2023,0.87,–,0.873,–,1.08,0.425,1.16,1.02,0.224,0.318,0.304,–,0.27,0.846,0.376,0.615,–,0.614,0.776,0.925
NCI-H2405,1.03,–,1.05,0.986,–,0.857,0.92,0.983,1.15,1.12,1.13,1.02,–,1.06,–,1.18,0.942,0.961,1.02,1.01
NCI-H460,1.12,0.918,1.15,0.909,1.5,1.33,1.7,–,0.0572,0.0576,0.0551,0.0623,0.0654,1.4,0.636,1.09,0.705,0.735,1.07,0.92
NCI-H3122,0.879,1.12,–,0.887,0.985,1.06,1.04,1.05,0.202,0.211,0.198,0.185,0.2,1.13,1.01,1.08,–,1.02,0.984,0.96
LC-2-ad,0.926,0.676,0.886,0.819,1.16,0.658,1.18,0.929,0.265,–,0.298,0.251,0.27,0.73,–,0.754,0.707,0.693,0.982,0.985
NCI-H596,0.948,–,0.931,0.855,1.2,1.02,–,–,0.497,0.507,0.509,0.466,0.487,0.648,0.481,0.59,0.586,0.623,0.832,0.944
LCLC-103H,–,0.744,0.565,0.679,1.08,–,–,–,0.458,0.445,0.472,0.464,0.504,0.768,0.584,0.814,0.766,0.779,0.869,1.13
HOP-62,1.27,–,1.23,0.994,1.14,–,1.19,0.598,0.302,–,0.356,0.29,0.317,0.884,–,0.83,0.562,0.68,1.12,0.732
